Tests used:
MCF7 cells = test: Breast cancer cell proliferation assay (MCF-7), Cell Titer-Glo; assay type: cell-based; details: Homo sapiens, 120 h, 5 days of compound exposure
Method: Breast Cancer Cell Proliferation Assay (MCF-7)
MCF7 cells were expanded and maintained in DMEM (Hyclone SH30272.01, Phenol red free) with NEAA (Gibco11140-050), Na-pyruvate (Gibco 11360-070) and Re-stripped Charcoal stripped FBS (Gemini 100-119)). The cells were adjusted to a concentration of 3,000 cells per mL and incubated (37° C., 5% CO2). The following day a 10 point, serial dilution of compounds was added to the cells at a final concentration ranging from 10 μM to 0.000005 μM for test compounds (17β-estradiol was used as a control). Additional cells were plated in 30 wells to serve as the day 1 (pretreatment) comparison. After 5 days of compound exposure, Cell Titer-Glo reagent was added to the cells and the relative luminescence units (RLUs) of each well was determined Cell Titer-Glo was also added to 32 μL of medium without cells to obtain a background value. The plates were allowed to incubate at room temperature for 10 minutes to stabilize luminescent signal and the luminescence signal was recorded with EnSpire. The relative increase in cell number of each sample is determined as follows: (RLU sample-RLU background/RLU estrogen only treated cells-RLU background)×100=[…].

[1] = target: T1, ESR1 protein (estrogen receptor alpha) (Homo sapiens, UniProt P03372); test: ER degradation determination by Western blot in MCF-7 cells; assay type: cell-based; details: 10 μM, 18-24 hours
T1 construct: After incubating cells with the indicated compounds for 18-24 hours, cell lysates were prepared; endogenous in cells; host or cells: MCF-7
T1 sequence (P03372 1-595): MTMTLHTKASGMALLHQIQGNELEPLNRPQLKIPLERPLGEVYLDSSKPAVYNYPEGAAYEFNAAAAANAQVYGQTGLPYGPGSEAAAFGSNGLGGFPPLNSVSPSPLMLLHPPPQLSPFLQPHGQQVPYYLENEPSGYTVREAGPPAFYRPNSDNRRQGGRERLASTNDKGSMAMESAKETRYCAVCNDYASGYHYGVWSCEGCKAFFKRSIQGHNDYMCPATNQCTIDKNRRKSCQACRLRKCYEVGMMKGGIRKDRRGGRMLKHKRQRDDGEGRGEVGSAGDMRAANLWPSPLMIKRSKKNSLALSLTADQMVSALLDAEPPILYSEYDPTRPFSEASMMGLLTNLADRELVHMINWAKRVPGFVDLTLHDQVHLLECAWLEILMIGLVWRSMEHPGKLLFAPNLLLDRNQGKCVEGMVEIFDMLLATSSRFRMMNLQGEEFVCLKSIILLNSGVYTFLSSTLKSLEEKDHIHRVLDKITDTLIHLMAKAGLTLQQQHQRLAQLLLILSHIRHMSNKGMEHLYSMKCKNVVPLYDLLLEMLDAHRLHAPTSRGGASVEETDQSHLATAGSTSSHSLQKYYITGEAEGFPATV
Method: ER Degradation Determination by Western Blot
MCF-7 cells were plated at 0.3 million cells/mL (3 mL/well) in 6-well plates in experiment media and incubated at 37° C., 5% CO2 for 48 hours. A 10× solution of compounds were made in DMSO and added the solution to the cells to achieve a final concentration of 10 μM. A DMSO control was included to enable a determination of the relative efficacy of test compounds. […] After incubating cells with the indicated compounds for 18-24 hours, cell lysates were prepared (2× Cell lysis buffer: 100 mM Tris, pH 8, 300 mM NaCl, 2% NP40, 1% Na deoxycholate, 0.04% SDS and 2 mM EDTA) and mixed thoroughly and incubated on ice. The protein concentration was quantified using BCA kit. […] The gel was then transferred onto a nitrocellulose membrane. […] GAPDH protein was used as an internal control.

ERα (ESR1 protein) = target: T2, ERα (ESR1 protein) (Homo sapiens, UniProt P03372); test: ERα EC50 determination (Western blot band density, MCF-7 cells); assay type: cell-based; details: 18-24 hours, ERα degradation
T2 construct: After incubating cells with the indicated compounds for 18-24 hours, cell lysates were prepared; endogenous in cells; host or cells: MCF-7
T2 sequence (P03372 1-595): T1 sequence (P03372 1-595)
Description: A DMSO control was included to enable a determination of the relative efficacy of test compounds. […] The protein concentration was quantified using BCA kit.

[2] = Pharmacokinetic determination in mice; assay type: in vivo, female CD mice; details: mouse
Method: (§1) Pharmacokinetic Determination
(§2) Grouping female CD mice weighing 20-30 g or female SD rats weighing 200-300 g randomly to two groups; one group was administered with test compound at a dose of 3.0 mg/kg by intravenous injection, the other group was administered with test compound at a dose of 10.0 mg/kg orally. The formulation for IV groups were DMSO/PEG400/150 mM glycine (pH 9) (5/10/85) and the formulation for PO groups were PEG400/PVP/Tween 80/0.5% CMC in water (9/0.5/0.5/90). After administering, blood samples of intravenous injection group were collected at time points of predose, 0.0833, 0.25, 0.5, 1, 2, 4, 8, 12 and 24 h; blood samples of oral group were collected at time points of predose, 0.25, 0.5, 1, 2, 4, 8, 12, and 24 h. Standard curve was plotted based on concentrations of the samples in a suitable range, the concentrations of test compounds in plasma samples were determined by using LC-MS/MS. Pharmacokinetic parameters were calculated according to drug concentration-time curve using a noncompartmental method by WinNonLin (Phoenix™, version 6.1) or other similar software.

[3] = Pharmacokinetic determination in rats; assay type: in vivo, female SD rats; details: rat
Method: as §1, §2

estrogen receptor = target: T3, estrogen receptor (Homo sapiens, UniProt P03372); details: 500 mg monthly dose; cited from earlier work
T3 sequence (P03372 1-595): T1 sequence (P03372 1-595)

[4] = female, CD, plasma, IV, 3.0 mg/kg
[5] = female, CD, plasma, PO, 10.0 mg/kg
[6] = female, SD, plasma, IV, 3.0 mg/kg
[7] = female, SD, plasma, PO, 10.0 mg/kg

`CC/C(=C(/c1ccc(/C=C/C(=O)O)cc1)c1ccc2[nH]ncc2c1)c1ccc(F)cc1Cl` [ARN810] gave an IC50 (MCF7 cells) of no more than 25 nM.

With `C[C@@H]1Cc2c([nH]c3ccccc23)[C@@H](c2c(F)cc(/C=C/C(=O)O)cc2F)N1CC(C)(C)F` [AZD9496] the IC50 (MCF7 cells) was no more than 25 nM and the ERα % degradation [1] was “A (ERα % degradation ≥ 80%)”.

In the case of `CC/C(=C(\c1ccc(O)cc1)c1ccc(/C=C/C(=O)O)cc1)c1ccc(F)cc1Cl` [Example 1, (E)-3-(4-((E)-2-(2-chloro-4-fluorophenyl)-1-(4-hydroxyphenyl)but-1-en-1-yl)phenyl)acrylic acid], the EC50 (ERα (ESR1 protein)) is reported as less than 25 nM, the IC50 (MCF7 cells) is reported as no more than 25 nM and the ERα % degradation [1] is reported as “B (ERα % degradation < 80%)”. The AUC(0-inf) [2, 4] was 2.4 µM·h, the clearance [2, 4] was 49.6 mL/min/kg and the half-life [2, 4] was 3.9 h. The Vd ([2]; female, CD, plasma, IV, 3.0 mg/kg, read-out: Vdss) was 6 L/kg, the AUC(0-inf) [2, 5] was 7 µM·h and the Cmax [2, 5] was 2.5 µM. The Tmax [2, 5] was 0.25 h, the half-life [2, 5] was 3.4 h and the F ([2]; PO, 10.0 mg/kg) was 88%. It also gave an AUC(0-inf) [3, 6] of 6.3 µM·h, a clearance [3, 6] of 19 mL/min/kg and a half-life [3, 6] of 3.9 h. It also gave a Vd ([3]; female, SD, plasma, IV, 3.0 mg/kg, read-out: Vdss) of 2.9 L/kg, an AUC(0-inf) [3, 7] of 11.1 µM·h and a Cmax [3, 7] of 5.7 µM. For the same molecule, the Tmax [3, 7] was 0.5 h, the half-life [3, 7] was 8 h and the F ([3]; PO, 10.0 mg/kg) was 53%.

In the case of `C[C@]12CC[C@@H]3c4ccc(O)cc4C[C@@H](CCCCCCCCC[S+]([O-])CCCC(F)(F)C(F)(F)F)[C@H]3[C@@H]1CC[C@@H]2O` (stereo partly drawn) [fulvestrant], the IC50 (MCF7 cells) is listed as no more than 25 nM, the ERα % degradation [1] is listed as “A (ERα % degradation ≥ 80%)” and the “turnover of the receptor in patient samples” value (estrogen receptor) is listed as “less than 50%”.
